Source: patent US20220389061A1, “IMMUNOMODULATORS” (priority 2019, published 2022)
Starred links: 1 amine or outer side, 2 acyl side, 3 side chain; linkers in the order of their positions; H or OH if unused. Positions of bridges follow the written chain, without caps; N, C: chain ends. Non-standard residues stand in square brackets, D forms with d. Residues, ends and D or L forms follow the SMILES beside them. Groups on a side chain read outwards from the residue. *: point of attachment. Trp(1-CH2CO2Me) = COC(=O)Cn1cc(C[C@H](N)C(=O)O)c2ccccc21; Trp(1-CH2COOH) = N[C@@H](Cc1cn(CC(=O)O)c2ccccc12)C(=O)O; Benzoyl(2-(4-MeOPh)) = COc1ccc(-c2ccccc2C(=O)*)cc1; X88 = Cc1cc([N+](=O)[O-])ccc1NC(=S)*; Hyp = O=C(O)[C@@H]1C[C@@H](O)CN1; X56 = COc1cc([N+](=O)[O-])ccc1N*; X44 = FC(F)(F)c1ccc(NC(=S)*)cc1; X53 = Cc1nc(-c2cccnc2)sc1C(=O)*; X42 = S=C(Nc1ccc2nccnc2c1Br)*; NMeNle = CCCC[C@H](NC)C(=O)O; X16 = S=C(Nc1ccc2c(c1)OCO2)*; X59 = S=C(Nc1ccc2nsnc2c1)*; X6 = CCCCCCCOc1ccc(N*)cc1; NMeA = CN[C@@H](C)C(=O)O; X71 = c1cc2c(cc1N*)OCCO2; Dab = NCC[C@H](N)C(=O)O; Dap = NC[C@H](N)C(=O)O; X77 = Clc1cccc(N*)c1Cl; X15 = Cc1ccc(Cl)cc1N*; CO = O=C([*:1])[*:2]

These molecules were tested against T1, PD-1/PD-L1 (Homo sapiens, UniProt Q9NZQ7) (assay: PD-1/PD-L1 Homogenous Time-Resolved Fluorescence (HTRF) binding assay). Conditions: not given.
T1 construct: TVMV protease site linker (C); made in house; host or cells: HEK293T cells
T1 sequence (Q9NZQ7 18-239): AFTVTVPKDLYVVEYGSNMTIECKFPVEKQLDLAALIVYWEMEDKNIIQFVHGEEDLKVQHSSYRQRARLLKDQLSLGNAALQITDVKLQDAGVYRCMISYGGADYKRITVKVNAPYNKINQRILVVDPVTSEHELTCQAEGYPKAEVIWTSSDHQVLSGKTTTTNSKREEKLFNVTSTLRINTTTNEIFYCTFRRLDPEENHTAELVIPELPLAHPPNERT
From the text: The ability of the compounds of formula (I) to bind to PD-L1 was investigated using a PD-1/PD-L1 Homogenous Time-Resolved Fluorescence (HTRF) binding assay.
The interaction of PD-1 and PD-L1 can be assessed using soluble, purified preparations of the extracellular domains of the two proteins. The PD-1 and PD-L1 protein extracellular domains were expressed as fusion proteins with detection tags, for PD-1, the tag was the Fc portion of Immunoglobulin (PD-1-Ig) and for PD-L1 it was the 6 histidine motif (PD-L1-His). All binding studies were performed in an HTRF assay buffer consisting of dPBS supplemented with 0.1% […] bovine serum albumin and 0.05% (v/v) Tween-20. For the h/PD-L1-His binding assay, inhibitors were pre-incubated with PD-L1-His (10 nM final) for 15 m in 4 μl of assay buffer, followed by addition of PD-1-Ig (20 nM final) in 1 μl of assay buffer and further incubation for 15 m. HTRF detection was achieved using europium crypate-labeled anti-Ig (1 nM final) and allophycocyanin (APC) labeled anti-His (20 nM final). Antibodies were diluted in HTRF detection buffer and 5 μl was dispensed on top of the binding reaction. […] Additional binding assays were established between the human proteins PD-1-Ig/PD-L2-His (20 & 5 nM, respectively) and CD80-His/PD-L1-Ig (100 & 10 nM, respectively). […]

Compound	IC50 [nM]
CCCC[C@H]1C(=O)N(C)[C@@H](CCCC)C(=O)N[C@@H](CC(C)C)C(=O)N[C@H](C(=O)NCC(N)=O)CSCC(=O)N[C@@H](Cc2ccc(O)cc2)C(=O)N(C)[C@@H](C)C(=O)N[C@@H](CC(N)=O)C(=O)N2CCC[C@H]2C(=O)N[C@@H](CNC(=O)Nc2ccc([N+](=O)[O-])cc2OC)C(=O)N[C@@H](CC(C)C)C(=O)N2C[C@H](O)C[C@H]2C(=O)N[C@@H](Cc2c[nH]c3ccccc23)C(=O)N[C@@H](CCNC(=O)Nc2ccc([N+](=O)[O-])cc2OC)C(=O)N[C@@H](Cc2cn(CC(=O)O)c3ccccc23)C(=O)N1C [Example 1076] ({CH2CO}-Y[NMeA]NP[Dap]([CO-X56])L[Hyp]W[Dab]([CO-X56])[Trp(1-CH2COOH)][NMeNle][NMeNle]LCG-NH2; thioether N-14)	8.1
CCCC[C@H]1C(=O)N(C)[C@@H](CCCC)C(=O)N[C@@H](CC(C)C)C(=O)N[C@H](C(=O)NCC(N)=O)CSCC(=O)N[C@@H](Cc2ccc(O)cc2)C(=O)N(C)[C@@H](C)C(=O)N[C@@H](CC(N)=O)C(=O)N2CCC[C@H]2C(=O)N[C@@H](CNC(=S)Nc2ccc([N+](=O)[O-])cc2C)C(=O)N[C@@H](CC(C)C)C(=O)N2C[C@H](O)C[C@H]2C(=O)N[C@@H](Cc2c[nH]c3ccccc23)C(=O)N[C@@H](CCNC(=S)Nc2ccc([N+](=O)[O-])cc2C)C(=O)N[C@@H](Cc2cn(CC(=O)O)c3ccccc23)C(=O)N1C [Example 1125] ({CH2CO}-Y[NMeA]NP[Dap](X88)L[Hyp]W[Dab](X88)[Trp(1-CH2COOH)][NMeNle][NMeNle]LCG-NH2; thioether N-14)	6.7
CCCC[C@H]1C(=O)N(C)[C@@H](CCCC)C(=O)N[C@@H](CC(C)C)C(=O)N[C@H](C(=O)NCC(N)=O)CSCC(=O)N[C@@H](Cc2ccc(O)cc2)C(=O)N(C)[C@@H](C)C(=O)N[C@@H](CC(N)=O)C(=O)N2CCC[C@H]2C(=O)N[C@@H](CNC(=O)Nc2cccc(Cl)c2Cl)C(=O)N[C@@H](CC(C)C)C(=O)N2C[C@H](O)C[C@H]2C(=O)N[C@@H](Cc2c[nH]c3ccccc23)C(=O)N[C@@H](CCNC(=O)Nc2cccc(Cl)c2Cl)C(=O)N[C@@H](Cc2cn(CC(=O)O)c3ccccc23)C(=O)N1C [Example 1084] ({CH2CO}-Y[NMeA]NP[Dap]([CO-X77])L[Hyp]W[Dab]([CO-X77])[Trp(1-CH2COOH)][NMeNle][NMeNle]LCG-NH2; thioether N-14)	2.6

Same assay, conditions: PD-L1-His 10 nM pre-incubated with inhibitor, PD-1-Ig 20 nM; read-out: HTRF IC50

Compound	IC50 [nM]
CCCC[C@H]1C(=O)N(C)[C@@H](CCCC)C(=O)N[C@@H](CC(C)C)C(=O)N[C@H](C(=O)NCC(N)=O)CSCC(=O)N[C@@H](Cc2ccc(OC)cc2)C(=O)N(C)[C@@H](C)C(=O)N[C@@H](CC(N)=O)C(=O)N2CCC[C@H]2C(=O)N[C@@H](CNC(=O)c2ccccc2-c2ccc(OC)cc2)C(=O)N[C@@H](CC(C)C)C(=O)N2C[C@H](O)C[C@H]2C(=O)N[C@@H](Cc2c[nH]c3ccccc23)C(=O)N[C@@H](CCNC(=O)c2ccccc2-c2ccc(OC)cc2)C(=O)N[C@@H](Cc2cn(CC(=O)OC)c3ccccc23)C(=O)N1C [Example 1075] ({CH2CO}-Y(Me)[NMeA]NP[Dap](Benzoyl(2-(4-MeOPh)))L[Hyp]W[Dab](Benzoyl(2-(4-MeOPh)))[Trp(1-CH2CO2Me)][NMeNle][NMeNle]LCG-NH2; thioether N-14)	91
CCCCCCCOc1ccc(NC(=O)NC[C@@H]2NC(=O)[C@@H]3CCCN3C(=O)[C@H](CC(N)=O)NC(=O)[C@H](C)N(C)C(=O)[C@H](Cc3ccc(O)cc3)NC(=O)CSC[C@@H](C(=O)NCC(N)=O)NC(=O)[C@H](CC(C)C)NC(=O)[C@H](CCCC)N(C)C(=O)[C@H](CCCC)N(C)C(=O)[C@H](Cc3cn(CC(=O)O)c4ccccc34)NC(=O)[C@H](CCN)NC(=O)[C@H](Cc3c[nH]c4ccccc34)NC(=O)[C@@H]3C[C@@H](O)CN3C(=O)[C@H](CC(C)C)NC2=O)cc1 [Example 1089] ({CH2CO}-Y[NMeA]NP[Dap]([CO-X6])L[Hyp]W[Dab][Trp(1-CH2COOH)][NMeNle][NMeNle]LCG-NH2; thioether N-14)	12
CCCC[C@H]1C(=O)N(C)[C@@H](CCCC)C(=O)N[C@@H](CC(C)C)C(=O)N[C@H](C(=O)NCC(N)=O)CSCC(=O)N[C@@H](Cc2ccc(O)cc2)C(=O)N(C)[C@@H](C)C(=O)N[C@@H](CC(N)=O)C(=O)N2CCC[C@H]2C(=O)N[C@@H](CNC(=O)c2sc(-c3cccnc3)nc2C)C(=O)N[C@@H](CC(C)C)C(=O)N2C[C@H](O)C[C@H]2C(=O)N[C@@H](Cc2c[nH]c3ccccc23)C(=O)N[C@@H](CCNC(=O)c2sc(-c3cccnc3)nc2C)C(=O)N[C@@H](Cc2cn(CC(=O)OC)c3ccccc23)C(=O)N1C [Example 1008] ({CH2CO}-Y[NMeA]NP[Dap](X53)L[Hyp]W[Dab](X53)[Trp(1-CH2CO2Me)][NMeNle][NMeNle]LCG-NH2; thioether N-14)	7.6

Other lines, results leading:

IC50 [nM]	Compound
5.9	CCCC[C@H]1C(=O)N(C)[C@@H](CCCC)C(=O)N[C@@H](CC(C)C)C(=O)N[C@H](C(=O)NCC(N)=O)CSCC(=O)N[C@@H](Cc2ccc(O)cc2)C(=O)N(C)[C@@H](C)C(=O)N[C@@H](CC(N)=O)C(=O)N2CCC[C@H]2C(=O)N[C@@H](CNC(=S)Nc2ccc3nccnc3c2Br)C(=O)N[C@@H](CC(C)C)C(=O)N2C[C@H](O)C[C@H]2C(=O)N[C@@H](Cc2c[nH]c3ccccc23)C(=O)N[C@@H](CCNC(=S)Nc2ccc3nccnc3c2Br)C(=O)N[C@@H](Cc2cn(CC(=O)O)c3ccccc23)C(=O)N1C [Example 3070] ({CH2CO}-Y[NMeA]NP[Dap](X42)L[Hyp]W[Dab](X42)[Trp(1-CH2COOH)][NMeNle][NMeNle]LCG-NH2; thioether N-14)
4.7	CCCC[C@H]1C(=O)N(C)[C@@H](CCCC)C(=O)N[C@@H](CC(C)C)C(=O)N[C@H](C(=O)NCC(N)=O)CSCC(=O)N[C@@H](Cc2ccc(O)cc2)C(=O)N(C)[C@@H](C)C(=O)N[C@@H](CC(N)=O)C(=O)N2CCC[C@H]2C(=O)N[C@@H](CN)C(=O)N[C@@H](CC(C)C)C(=O)N2C[C@H](O)C[C@H]2C(=O)N[C@@H](Cc2c[nH]c3ccccc23)C(=O)N[C@@H](CCNC(=O)Nc2cc(Cl)ccc2C)C(=O)N[C@@H](Cc2cn(CC(=O)O)c3ccccc23)C(=O)N1C [Example 1117] ({CH2CO}-Y[NMeA]NP[Dap]L[Hyp]W[Dab]([CO-X15])[Trp(1-CH2COOH)][NMeNle][NMeNle]LCG-NH2; thioether N-14)
0.98	CCCC[C@H]1C(=O)N(C)[C@@H](CCCC)C(=O)N[C@@H](CC(C)C)C(=O)N[C@H](C(=O)NCC(N)=O)CSCC(=O)N[C@@H](Cc2ccc(O)cc2)C(=O)N(C)[C@@H](C)C(=O)N[C@@H](CC(N)=O)C(=O)N2CCC[C@H]2C(=O)N[C@@H](CNC(=S)Nc2ccc3c(c2)OCO3)C(=O)N[C@@H](CC(C)C)C(=O)N2C[C@H](O)C[C@H]2C(=O)N[C@@H](Cc2c[nH]c3ccccc23)C(=O)N[C@@H](CCN)C(=O)N[C@@H](Cc2cn(CC(=O)O)c3ccccc23)C(=O)N1C [Example 3065] ({CH2CO}-Y[NMeA]NP[Dap](X16)L[Hyp]W[Dab][Trp(1-CH2COOH)][NMeNle][NMeNle]LCG-NH2; thioether N-14)
2.5	CCCC[C@H]1C(=O)N(C)[C@@H](CCCC)C(=O)N[C@@H](CC(C)C)C(=O)N[C@H](C(=O)NCC(N)=O)CSCC(=O)N[C@@H](Cc2ccc(O)cc2)C(=O)N(C)[C@@H](C)C(=O)N[C@@H](CC(N)=O)C(=O)N2CCC[C@H]2C(=O)N[C@@H](CNC(=O)Nc2ccc3c(c2)OCCO3)C(=O)N[C@@H](CC(C)C)C(=O)N2C[C@H](O)C[C@H]2C(=O)N[C@@H](Cc2c[nH]c3ccccc23)C(=O)N[C@@H](CCN)C(=O)N[C@@H](Cc2cn(CC(=O)O)c3ccccc23)C(=O)N1C [Example 3042] ({CH2CO}-Y[NMeA]NP[Dap]([CO-X71])L[Hyp]W[Dab][Trp(1-CH2COOH)][NMeNle][NMeNle]LCG-NH2; thioether N-14)
3	CCCC[C@H]1C(=O)N(C)[C@@H](CCCC)C(=O)N[C@@H](CC(C)C)C(=O)N[C@H](C(=O)NCC(N)=O)CSCC(=O)N[C@@H](Cc2ccc(O)cc2)C(=O)N(C)[C@@H](C)C(=O)N[C@@H](CC(N)=O)C(=O)N2CCC[C@H]2C(=O)N[C@@H](CNC(=S)Nc2ccc3nsnc3c2)C(=O)N[C@@H](CC(C)C)C(=O)N2C[C@H](O)C[C@H]2C(=O)N[C@@H](Cc2c[nH]c3ccccc23)C(=O)N[C@@H](CCN)C(=O)N[C@@H](Cc2cn(CC(=O)O)c3ccccc23)C(=O)N1C [Example 3030] ({CH2CO}-Y[NMeA]NP[Dap](X59)L[Hyp]W[Dab][Trp(1-CH2COOH)][NMeNle][NMeNle]LCG-NH2; thioether N-14)
2.1	CCCC[C@H]1C(=O)N(C)[C@@H](CCCC)C(=O)N[C@@H](CC(C)C)C(=O)N[C@H](C(=O)NCC(N)=O)CSCC(=O)N[C@@H](Cc2ccc(O)cc2)C(=O)N(C)[C@@H](C)C(=O)N[C@@H](CC(N)=O)C(=O)N2CCC[C@H]2C(=O)N[C@@H](CNC(=S)Nc2ccc(C(F)(F)F)cc2)C(=O)N[C@@H](CC(C)C)C(=O)N2C[C@H](O)C[C@H]2C(=O)N[C@@H](Cc2c[nH]c3ccccc23)C(=O)N[C@@H](CCNC(=S)Nc2ccc(C(F)(F)F)cc2)C(=O)N[C@@H](Cc2cn(CC(=O)O)c3ccccc23)C(=O)N1C [Example 1035] ({CH2CO}-Y[NMeA]NP[Dap](X44)L[Hyp]W[Dab](X44)[Trp(1-CH2COOH)][NMeNle][NMeNle]LCG-NH2; thioether N-14)
